Calls of active or inactive are those of the source. No stated cut-off is given here; in the data, actives have a measured IC50 and inactives only a lower limit.
These compounds were tested against Envelope glycoprotein gp160 (Human immunodeficiency virus 1, UniProt Q6QLK5) (assay: inhibitors of HIV fusion peptide binding, primary screen, biochemical, uHTS, fluorescence dequenching (AID 1986)).
Envelope glycoprotein gp160, sequence (Q6QLK5 whole entry, the tested form may be a part): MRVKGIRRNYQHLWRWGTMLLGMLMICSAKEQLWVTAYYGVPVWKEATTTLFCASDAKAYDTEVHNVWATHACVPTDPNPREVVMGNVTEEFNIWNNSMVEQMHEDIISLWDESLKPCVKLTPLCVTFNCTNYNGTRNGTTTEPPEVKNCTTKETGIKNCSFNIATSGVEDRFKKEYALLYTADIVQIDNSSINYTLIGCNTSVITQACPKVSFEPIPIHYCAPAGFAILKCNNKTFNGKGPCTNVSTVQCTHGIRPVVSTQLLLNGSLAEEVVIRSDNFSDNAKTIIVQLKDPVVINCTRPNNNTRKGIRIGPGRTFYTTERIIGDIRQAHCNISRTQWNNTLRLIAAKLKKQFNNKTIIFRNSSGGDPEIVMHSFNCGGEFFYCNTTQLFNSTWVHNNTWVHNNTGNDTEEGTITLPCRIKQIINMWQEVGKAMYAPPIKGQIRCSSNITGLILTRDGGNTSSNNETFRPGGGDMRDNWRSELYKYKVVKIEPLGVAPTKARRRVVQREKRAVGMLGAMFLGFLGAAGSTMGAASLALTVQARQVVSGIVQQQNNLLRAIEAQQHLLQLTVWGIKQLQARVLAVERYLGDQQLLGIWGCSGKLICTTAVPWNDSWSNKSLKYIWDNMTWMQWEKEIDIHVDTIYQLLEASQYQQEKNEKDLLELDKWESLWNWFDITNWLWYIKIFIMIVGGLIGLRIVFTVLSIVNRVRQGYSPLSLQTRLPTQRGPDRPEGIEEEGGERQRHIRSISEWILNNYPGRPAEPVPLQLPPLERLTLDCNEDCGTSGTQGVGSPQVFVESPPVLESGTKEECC

SMILES	IC50
Cc1noc(NS(=O)(=O)c2ccc(NC(=O)Nc3ccc(Cl)c(Cl)c3)cc2)c1C	19.8 µM (active)
CCOc1cc(/C=C2/C(=N)N3C(=NC2=O)SN=C3S(=O)(=O)C(C)C)ccc1OC(=O)c1ccco1	14.8 µM (active)
COc1ccc(C(=O)COC(=O)c2ccccc2NS(=O)(=O)c2ccc(O)c([N+](=O)[O-])c2)cc1	16.4 µM (active)
Brc1ccc(N/N=C(/N=Nc2nn[nH]n2)c2ccccc2)cc1	29.5 µM (active)
O=C(O)c1cc(NC(=O)c2ccc(Br)cc2)cc(NC(=O)c2ccc(Br)cc2)c1	29.4 µM (active)
CC(C)S(=O)(=O)C1=NSC2=NC(=O)/C(=C\c3ccc(OC(=O)c4ccco4)cc3)C(=N)N21	26.7 µM (active)
N=C1/C(=C\c2ccc(-c3cccc(C(=O)O)c3)o2)C(=O)N=C2SC=C(c3ccccc3)N12	6.64 µM (active)
CCc1nnc(NS(=O)(=O)c2ccc(NC(=O)/C=C/c3ccccc3Cl)cc2)s1	23.7 µM (active)

Source: ChEMBL document CHEMBL1201862, “PubChem BioAssay data set” (2004)
